Test results as given in PubChem BioAssay AID1963422 (Molecular Pharmacology Branch, DTP, NCI, 2024).
pIC50: −log10 of the molar value.

System: 463943-066-T-J2-PDC complex spheroid growth
Assay: Anticancer human tumor 463943-066-T-J2-PDC patient-derived colon adenocarcinoma cell line growth inhibition [Asc]
Conditions: for pIC50: curve of first compound; for viability, T/C: stronger effect = lower value
Outline: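 Stromal components (HUVEC and hMSC) are co-assembled with the cancer cells into multicellular spheroids. Drugs are then added singly or paired, at concentrations falling by half-log increments from a clinically achievable maximum, capped at 10 microM without known Cmax.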

[1] = second compound 0.00949 µM, first compound 0.00316 µM
[2] = second compound 0.00949 µM, first compound 0.01 µM
[3] = second compound 0.00949 µM, first compound 0.0316 µM
[4] = second compound 0.00949 µM, first compound 0.1 µM
[5] = second compound 0.03 µM, first compound 0.00316 µM
[6] = second compound 0.03 µM, first compound 0.01 µM
[7] = second compound 0.03 µM, first compound 0.0316 µM
[8] = second compound 0.03 µM, first compound 0.1 µM
[9] = second compound 0.0949 µM, first compound 0.00316 µM
[10] = second compound 0.0949 µM, first compound 0.01 µM
[11] = second compound 0.0949 µM, first compound 0.0316 µM
[12] = second compound 0.0949 µM, first compound 0.1 µM
[13] = second compound 0.3 µM, first compound 0.00316 µM
[14] = second compound 0.3 µM, first compound 0.01 µM
[15] = second compound 0.3 µM, first compound 0.0316 µM
[16] = second compound 0.3 µM, first compound 0.1 µM
[17] = second compound 0.949 µM, first compound 0.00316 µM
[18] = second compound 0.949 µM, first compound 0.01 µM
[19] = second compound 0.949 µM, first compound 0.0316 µM
[20] = second compound 0.949 µM, first compound 0.1 µM
[21] = second compound 3 µM, first compound 0.00316 µM
[22] = second compound 3 µM, first compound 0.01 µM
[23] = second compound 3 µM, first compound 0.0316 µM
[24] = second compound 3 µM, first compound 0.1 µM
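Also: compound exposure lasted 7 days.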
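For viability, T/C in this document: 100% = DMSO vehicle control wells.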

Structure (SMILES): COc1c(OCCCN2CCOCC2)ccc2c3n(c(=NC(=O)c4cnc(N)nc4)nc12)CCN3 + CCN1C(C(=O)NC23CCC(C(=O)O)(CC2)CC3)C(c2cccc(Cl)c2F)C2(C(=O)Nc3cc(Cl)ccc32)C12CCCCC2
- pIC50 (second compound 0.00949 µM): 6.39
- pIC50 (second compound 0.03 µM): 6.57
- pIC50 (second compound 0.0949 µM): 6.64
- pIC50 (second compound 0.3 µM): 7.15
- pIC50 (second compound 0.949 µM): 7.35
- pIC50 (second compound 3 µM): 7.22
- viability, T/C [1]: 89.5%
- viability, T/C [2]: 82.9%
- viability, T/C [3]: 74%
- viability, T/C [4]: 69.2%
- viability, T/C (second compound 0.00949 µM, first compound 0.316 µM): 51.2%
- viability, T/C (second compound 0.00949 µM, first compound 1 µM): 39.4%
- viability, T/C [5]: 95.3%
- viability, T/C [6]: 88.5%
- viability, T/C [7]: 71.5%
- viability, T/C [8]: 61.2%
- viability, T/C (second compound 0.03 µM, first compound 0.316 µM): 50.3%
- viability, T/C (second compound 0.03 µM, first compound 1 µM): 33.7%
- viability, T/C [9]: 87.3%
- viability, T/C [10]: 84.1%
- viability, T/C [11]: 71.4%
- viability, T/C [12]: 59.3%
- viability, T/C (second compound 0.0949 µM, first compound 0.316 µM): 47.4%
- viability, T/C (second compound 0.0949 µM, first compound 1 µM): 33.6%
- viability, T/C [13]: 73%
- viability, T/C [14]: 72.5%
- viability, T/C [15]: 61.9%
- viability, T/C [16]: 44.4%
- viability, T/C (second compound 0.3 µM, first compound 0.316 µM): 37.1%
- viability, T/C (second compound 0.3 µM, first compound 1 µM): 32%
- viability, T/C [17]: 68.5%
- viability, T/C [18]: 62.5%
- viability, T/C [19]: 53.4%
- viability, T/C [20]: 42.2%
- viability, T/C (second compound 0.949 µM, first compound 0.316 µM): 35.1%
- viability, T/C (second compound 0.949 µM, first compound 1 µM): 30.4%
- viability, T/C [21]: 65.3%
- viability, T/C [22]: 64.4%
- viability, T/C [23]: 53.7%
- viability, T/C [24]: 45.4%
- viability, T/C (second compound 3 µM, first compound 0.316 µM): 39.1%
- viability, T/C (second compound 3 µM, first compound 1 µM): 29.8%

Structure (SMILES): NC(=O)C(=Cn1cnc(-c2cc(C(F)(F)F)cc(C(F)(F)F)c2)n1)c1cncnc1 + CCN1C(C(=O)NC23CCC(C(=O)O)(CC2)CC3)C(c2cccc(Cl)c2F)C2(C(=O)Nc3cc(Cl)ccc32)C12CCCCC2
- pIC50 (second compound 0.00949 µM): < 6.52
- pIC50 (second compound 0.03 µM): < 6.52
- pIC50 (second compound 0.0949 µM): < 6.52
- pIC50 (second compound 0.3 µM): 6.81
- pIC50 (second compound 0.949 µM): 7.49
- pIC50 (second compound 3 µM): 7.82
- viability, T/C (second compound 0.00949 µM, first compound 0.000949 µM): 94.2%
- viability, T/C (second compound 0.00949 µM, first compound 0.003 µM): 91.3%
- viability, T/C (second compound 0.00949 µM, first compound 0.00949 µM): 82.5%
- viability, T/C (second compound 0.00949 µM, first compound 0.03 µM): 87.4%
- viability, T/C (second compound 0.00949 µM, first compound 0.0949 µM): 81%
- viability, T/C (second compound 0.00949 µM, first compound 0.3 µM): 63.7%
- viability, T/C (second compound 0.03 µM, first compound 0.000949 µM): 99.5%
- viability, T/C (second compound 0.03 µM, first compound 0.003 µM): 92.6%
- viability, T/C (second compound 0.03 µM, first compound 0.00949 µM): 81%
- viability, T/C (second compound 0.03 µM, first compound 0.03 µM): 84.9%
- viability, T/C (second compound 0.03 µM, first compound 0.0949 µM): 78.8%
- viability, T/C (second compound 0.03 µM, first compound 0.3 µM): 62.5%
- viability, T/C (second compound 0.0949 µM, first compound 0.000949 µM): 86.8%
- viability, T/C (second compound 0.0949 µM, first compound 0.003 µM): 84.9%
- viability, T/C (second compound 0.0949 µM, first compound 0.00949 µM): 80.7%
- viability, T/C (second compound 0.0949 µM, first compound 0.03 µM): 78.6%
- viability, T/C (second compound 0.0949 µM, first compound 0.0949 µM): 70.6%
- viability, T/C (second compound 0.0949 µM, first compound 0.3 µM): 54.5%
- viability, T/C (second compound 0.3 µM, first compound 0.000949 µM): 78.7%
- viability, T/C (second compound 0.3 µM, first compound 0.003 µM): 75.4%
- viability, T/C (second compound 0.3 µM, first compound 0.00949 µM): 68.7%
- viability, T/C (second compound 0.3 µM, first compound 0.03 µM): 67.5%
- viability, T/C (second compound 0.3 µM, first compound 0.0949 µM): 51.2%
- viability, T/C (second compound 0.3 µM, first compound 0.3 µM): 44.5%
- viability, T/C (second compound 0.949 µM, first compound 0.000949 µM): 68.1%
- viability, T/C (second compound 0.949 µM, first compound 0.003 µM): 67.3%
- viability, T/C (second compound 0.949 µM, first compound 0.00949 µM): 61%
- viability, T/C (second compound 0.949 µM, first compound 0.03 µM): 52.1%
- viability, T/C (second compound 0.949 µM, first compound 0.0949 µM): 37.8%
- viability, T/C (second compound 0.949 µM, first compound 0.3 µM): 34.8%
- viability, T/C (second compound 3 µM, first compound 0.000949 µM): 66%
- viability, T/C (second compound 3 µM, first compound 0.003 µM): 63.6%
- viability, T/C (second compound 3 µM, first compound 0.00949 µM): 56.9%
- viability, T/C (second compound 3 µM, first compound 0.03 µM): 40%
- viability, T/C (second compound 3 µM, first compound 0.0949 µM): 30.4%
- viability, T/C (second compound 3 µM, first compound 0.3 µM): 29%

Structure (SMILES): NC1CCC(NC2CC2c2ccccc2)CC1 (stereo unspecified) + CCN1C(C(=O)NC23CCC(C(=O)O)(CC2)CC3)C(c2cccc(Cl)c2F)C2(C(=O)Nc3cc(Cl)ccc32)C12CCCCC2
- pIC50 (second compound 0.00949 µM): < 7.00
- pIC50 (second compound 0.03 µM): < 7.00
- pIC50 (second compound 0.0949 µM): < 7.00
- pIC50 (second compound 0.3 µM): < 7.00
- pIC50 (second compound 0.949 µM): < 7.00
- pIC50 (second compound 3 µM): < 7.00
- viability, T/C (second compound 0.00949 µM, first compound 0.000316 µM): 89.9%
- viability, T/C (second compound 0.00949 µM, first compound 0.001 µM): 76.8%
- viability, T/C [1]: 87.3%
- viability, T/C [2]: 91.6%
- viability, T/C [3]: 87.1%
- viability, T/C [4]: 89%
- viability, T/C (second compound 0.03 µM, first compound 0.000316 µM): 88.8%
- viability, T/C (second compound 0.03 µM, first compound 0.001 µM): 79.3%
- viability, T/C [5]: 83.1%
- viability, T/C [6]: 82.5%
- viability, T/C [7]: 86.2%
- viability, T/C [8]: 75.3%
- viability, T/C (second compound 0.0949 µM, first compound 0.000316 µM): 84.6%
- viability, T/C (second compound 0.0949 µM, first compound 0.001 µM): 80.8%
- viability, T/C [9]: 77.1%
- viability, T/C [10]: 82.8%
- viability, T/C [11]: 82.4%
- viability, T/C [12]: 75.4%
- viability, T/C (second compound 0.3 µM, first compound 0.000316 µM): 78.2%
- viability, T/C (second compound 0.3 µM, first compound 0.001 µM): 77.3%
- viability, T/C [13]: 71.5%
- viability, T/C [14]: 79%
- viability, T/C [15]: 74.7%
- viability, T/C [16]: 71.9%
- viability, T/C (second compound 0.949 µM, first compound 0.000316 µM): 67.7%
- viability, T/C (second compound 0.949 µM, first compound 0.001 µM): 71.3%
- viability, T/C [17]: 66.7%
- viability, T/C [18]: 67.2%
- viability, T/C [19]: 71.5%
- viability, T/C [20]: 65.8%
- viability, T/C (second compound 3 µM, first compound 0.000316 µM): 69.4%
- viability, T/C (second compound 3 µM, first compound 0.001 µM): 68%
- viability, T/C [21]: 66.5%
- viability, T/C [22]: 65.8%
- viability, T/C [23]: 71%
- viability, T/C [24]: 64.3%
